{"source": "patent US11807625B2", "about": "“Capsid inhibitors for the prevention of HIV” (Gilead Sciences, Inc., priority 2019, dated 2023)", "test": "PK of compound of Formula (Ia) after single subcutaneous dose of solution formulations in Wistar Han rats", "format": "in vivo", "settings": "male, Wistar Han, rat, plasma, sc, 50 mg/kg, SC 50 mg/kg", "procedure": "Formulations containing the compound of Formula (Ia), or a pharmaceutically acceptable salt thereof, were prepared as solutions and optionally administered subcutaneously or intramuscularly to rats, rabbits, and/or dogs.\n(§1) A solution of about 400 mg/mL of the compound of Formula (Ia) having 19.14 w/w % water, 40.66 w/w % PEG 300, 35.20 w/w % of a sodium salt of a compound of Formula (Ia), and 5.00% ethanol was prepared. The solution was administered subcutaneously to male Wistar Han rats at a dose level of about 50 mg/kg and dose volume of 0.125 mL/kg and the pharmacokinetic (PK) profile was determined.\nas §1, with “500” for “400”, “16.64” for “19.14”, “35.36” for “40.66”, “43.00” for “35.20”, “0.1” for “0.125”\n(§2) A solution of about 400 mg/mL of the compound of Formula (Ia) having 17.00 w/w % water, 36.40 w/w % PEG 300, 35.20 w/w % of a sodium salt of a compound of Formula (Ia), 5.00 w/w % ethanol, and 6.40 w/w % poloxamer 188 was prepared. The solution was administered subcutaneously to male beagle dogs at a dose level of about 12 mg/kg and male Wistar Han rats at a dose level of about 50 mg/kg. The pharmacokinetic profiles were determined, and the results for dogs are summarized in Table and Table, while the results for rats are summarized in Table and Table below.\nas §2, with “500” for “400”, “14.06” for “17.00”, “30.12” for “36.40”\nA solution of about 300 mg/mL of the compound of Formula (Ia) having 23.33 w/w % water, 48.99 w/w % PEG 300, 26.47 w/w % of a sodium salt of a compound of Formula (Ia), and 1.21 w/w % poloxamer 188 was prepared. The solution was administered subcutaneously to male beagle dogs at a dose level of about 6 mg/kg and male Wistar Han rats at a dose level of about 50 mg/kg. The pharmacokinetic profiles were determined, and the results for dogs are summarized in Table and Table, while the results for rats are summarized in Table and Table below.\nas §2, with “18.80” for “17.00”, “40.25” for “36.40”, “34.38” for “35.20”, “1.57” for “6.40”\nas §2, with “500” for “400”, “16.29” for “17.00”, “34.88” for “36.40”, “41.92” for “35.20”, “1.91” for “6.40”\nA solution of about 400 mg/mL of the compound of Formula (Ia) having 20.90 w/w % water, 44.72 w/w % PEG 300, and 34.38 w/w % of a sodium salt of a compound of Formula (Ia) was prepared. […]", "key": {"[1]": {"settings": "mean, n = 3 rats, solution R, 400 mg/mL"}, "[2]": {"settings": "mean, n = 3 rats, solution S, 500 mg/mL"}, "[3]": {"settings": "mean, n = 3 rats, solution V, 300 mg/mL"}, "[4]": {"settings": "mean, n = 5 rats, solution T, 400 mg/mL"}, "[5]": {"settings": "mean, n = 5 rats, solution U, 500 mg/mL"}, "[6]": {"settings": "individual rats, solution R, 400 mg/mL"}, "[7]": {"settings": "individual rats, solution S, 500 mg/mL"}, "[8]": {"settings": "individual rats, solution V, 300 mg/mL"}, "[9]": {"settings": "mean (rat #1 NS), solution T, 400 mg/mL"}}}
{"smiles": "CC(C)(C#Cc1ccc(-c2ccc(Cl)c3c(NS(C)(=O)=O)nn(CC(F)(F)F)c23)c([C@H](Cc2cc(F)cc(F)c2)NC(=O)Cn2nc(C(F)(F)F)c3c2C(F)(F)[C@@H]2C[C@H]32)n1)S(C)(=O)=O", "note": "[compound of Formula (Ia)]", "values": [{"measurement": "concentration at 672 h", "setting": "[1]", "result": 0.339, "unit": "µM"}, {"measurement": "concentration at 672 h", "setting": "[2]", "result": 0.296, "unit": "µM"}, {"measurement": "concentration at 672 h", "setting": "[3]", "result": 0.308, "unit": "µM"}, {"measurement": "concentration at 672 h", "setting": "[4]", "result": 0.298, "unit": "µM"}, {"measurement": "concentration at 672 h", "setting": "[5]", "result": 0.296, "unit": "µM"}, {"measurement": "concentration at 840 h", "setting": "[6]", "result": 0.295, "unit": "µM"}, {"measurement": "concentration at 840 h", "setting": "[7]", "result": 0.429, "unit": "µM"}, {"measurement": "concentration at 840 h", "setting": "[8]", "result": 0.285, "unit": "µM"}, {"measurement": "concentration at 840 h", "setting": "[1]", "result": 0.35, "unit": "µM"}, {"measurement": "concentration at 840 h", "setting": "[2]", "result": 0.3, "unit": "µM"}, {"measurement": "concentration at 840 h", "setting": "[3]", "result": 0.308, "unit": "µM"}, {"measurement": "concentration at 840 h", "setting": "[4]", "result": 0.215, "unit": "µM"}, {"measurement": "concentration at 840 h", "setting": "[5]", "result": 0.261, "unit": "µM"}, {"measurement": "concentration at 1008 h", "setting": "[6]", "result": 0.303, "unit": "µM"}, {"measurement": "concentration at 1008 h", "setting": "[1]", "result": 0.354, "unit": "µM"}, {"measurement": "concentration at 1008 h", "setting": "[2]", "result": 0.3, "unit": "µM"}, {"measurement": "concentration at 1008 h", "setting": "[3]", "result": 0.258, "unit": "µM"}, {"measurement": "concentration at 1008 h", "setting": "[4]", "result": 0.207, "unit": "µM"}, {"measurement": "concentration at 1008 h", "setting": "[5]", "result": 0.284, "unit": "µM"}, {"measurement": "concentration at 1334 h", "setting": "[6]", "result": 0.296, "unit": "µM"}, {"measurement": "concentration at 1334 h", "setting": "[7]", "result": 0.398, "unit": "µM"}, {"measurement": "concentration at 1334 h", "setting": "[1]", "result": 0.328, "unit": "µM"}, {"measurement": "concentration at 1334 h", "setting": "[2]", "result": 0.3, "unit": "µM"}, {"measurement": "concentration at 1344 h", "setting": "[8]", "result": 0.272, "unit": "µM"}, {"measurement": "concentration at 1344 h", "setting": "[3]", "result": 0.301, "unit": "µM"}, {"measurement": "concentration at 1344 h", "setting": "[4]", "result": 0.159, "unit": "µM"}, {"measurement": "concentration at 1344 h", "setting": "[5]", "result": 0.226, "unit": "µM"}, {"measurement": "concentration at 1680 h", "setting": "[6]", "result": 0.271, "unit": "µM"}, {"measurement": "concentration at 1680 h", "setting": "[7]", "result": 0.342, "unit": "µM"}, {"measurement": "concentration at 1680 h", "setting": "[8]", "result": 0.221, "unit": "µM"}, {"measurement": "concentration at 1680 h", "setting": "[9]", "result": 0.145, "unit": "µM"}, {"measurement": "concentration at 1680 h", "setting": "[1]", "result": 0.277, "unit": "µM"}, {"measurement": "concentration at 1680 h", "setting": "[2]", "result": 0.249, "unit": "µM"}, {"measurement": "concentration at 1680 h", "setting": "[3]", "result": 0.25, "unit": "µM"}, {"measurement": "concentration at 1680 h", "setting": "[5]", "result": 0.198, "unit": "µM"}, {"measurement": "concentration at 2016 h", "setting": "[6]", "result": 0.199, "unit": "µM"}, {"measurement": "concentration at 2016 h", "setting": "[7]", "result": 0.221, "unit": "µM"}, {"measurement": "concentration at 2016 h", "setting": "[8]", "result": 0.138, "unit": "µM"}, {"measurement": "concentration at 2016 h", "setting": "[9]", "result": 0.14, "unit": "µM"}, {"measurement": "concentration at 2016 h", "setting": "[1]", "result": 0.202, "unit": "µM"}, {"measurement": "concentration at 2016 h", "setting": "[2]", "result": 0.171, "unit": "µM"}, {"measurement": "concentration at 2016 h", "setting": "[3]", "result": 0.181, "unit": "µM"}, {"measurement": "concentration at 2016 h", "setting": "[5]", "result": 0.174, "unit": "µM"}, {"measurement": "concentration at 2352 h", "setting": "[6]", "result": 0.183, "unit": "µM"}, {"measurement": "concentration at 2352 h", "setting": "[7]", "result": 0.231, "unit": "µM"}, {"measurement": "concentration at 2352 h", "setting": "[8]", "result": 0.122, "unit": "µM"}, {"measurement": "concentration at 2352 h", "setting": "[9]", "result": 0.117, "unit": "µM"}, {"measurement": "concentration at 2352 h", "setting": "[1]", "result": 0.182, "unit": "µM"}, {"measurement": "concentration at 2352 h", "setting": "[2]", "result": 0.173, "unit": "µM"}, {"measurement": "concentration at 2352 h", "setting": "[3]", "result": 0.165, "unit": "µM"}, {"measurement": "concentration at 2352 h", "setting": "[5]", "result": 0.167, "unit": "µM"}, {"measurement": "concentration at 2688 h", "setting": "[6]", "result": 0.168, "unit": "µM"}, {"measurement": "concentration at 2688 h", "setting": "[7]", "result": 0.171, "unit": "µM"}, {"measurement": "concentration at 2688 h", "setting": "[8]", "result": 0.113, "unit": "µM"}, {"measurement": "concentration at 2688 h", "setting": "[9]", "result": 0.162, "unit": "µM"}, {"measurement": "concentration at 2688 h", "setting": "[1]", "result": 0.154, "unit": "µM"}, {"measurement": "concentration at 2688 h", "setting": "[2]", "result": 0.148, "unit": "µM"}, {"measurement": "concentration at 2688 h", "setting": "[3]", "result": 0.141, "unit": "µM"}, {"measurement": "concentration at 2688 h", "setting": "[5]", "result": 0.108, "unit": "µM"}, {"measurement": "concentration at 3024 h", "setting": "[6]", "result": 0.136, "unit": "µM"}, {"measurement": "concentration at 3024 h", "setting": "[7]", "result": 0.125, "unit": "µM"}, {"measurement": "concentration at 3024 h", "setting": "[8]", "result": 0.0814, "unit": "µM"}, {"measurement": "concentration at 3024 h", "setting": "[9]", "result": 0.131, "unit": "µM"}, {"measurement": "concentration at 3024 h", "setting": "[1]", "result": 0.122, "unit": "µM"}, {"measurement": "concentration at 3024 h", "setting": "[2]", "result": 0.108, "unit": "µM"}, {"measurement": "concentration at 3024 h", "setting": "[3]", "result": 0.0991, "unit": "µM"}, {"measurement": "concentration at 3024 h", "setting": "[5]", "result": 0.102, "unit": "µM"}, {"measurement": "concentration at 3360 h", "setting": "[6]", "result": 0.132, "unit": "µM"}, {"measurement": "concentration at 3360 h", "setting": "[7]", "result": 0.135, "unit": "µM"}]}
